Experimental data from ChEMBL document CHEMBL1147864, “Synthesis of new sugar derivatives from Stachys sieboldi Miq and antibacterial evaluation against Mycobacterium tuberculosis, Mycobacterium avium, and Staphylococcus aureus” (2007).
In brackets after ≈: the same amount, converted by molar mass.

What was measured:
Type in all cases: functional
Conditions in all cases: 336 h
[1] = test system: Mycobacterium tuberculosis; assay: Antibacterial activity against Mycobacterium tuberculosis H37Rv after 2 weeks by broth dilution method
Staphylococcus aureus [2] = assay: Antibacterial activity against Staphylococcus aureus after 2 weeks by broth dilution method
[3] = test system: Mycobacterium tuberculosis; assay: Antimycobacterial activity against Mycobacterium tuberculosis A-1-3 after 2 weeks by broth dilution method
[4] = test system: Mycobacterium tuberculosis; assay: Antimycobacterial activity against Mycobacterium tuberculosis A-2-5 after 2 weeks by broth dilution method
Staphylococcus aureus [5] = assay: Antibacterial activity against methicillin-resistant Staphylococcus aureus 873 after 2 weeks by broth dilution method
[6] = test system: Mycobacterium tuberculosis; assay: Antimycobacterial activity against Mycobacterium tuberculosis A-3-1 after 2 weeks by broth dilution method
[7] = test system: Mycobacterium tuberculosis; assay: Antimycobacterial activity against Mycobacterium tuberculosis A-3-12 after 2 weeks by broth dilution method
Staphylococcus aureus [8] = assay: Antibacterial activity against methicillin-resistant Staphylococcus aureus 908 after 2 weeks by broth dilution method
[9] = test system: Mycobacterium tuberculosis; assay: Antimycobacterial activity against Mycobacterium tuberculosis A-1-1 after 2 weeks by broth dilution method
[10] = test system: Mycobacterium tuberculosis; assay: Antimycobacterial activity against Mycobacterium tuberculosis A-3-21 after 2 weeks by broth dilution method
[11] = test system: Mycobacterium tuberculosis; assay: Antimycobacterial activity against Mycobacterium tuberculosis A-3-2 after 2 weeks by broth dilution method
Staphylococcus aureus [12] = assay: Antibacterial activity against methicillin-resistant Staphylococcus aureus 906 after 2 weeks by broth dilution method
[13] = test system: Mycobacterium tuberculosis; assay: Antimycobacterial activity against Mycobacterium tuberculosis A-3-15 after 2 weeks by broth dilution method
[14] = test system: Mycobacterium tuberculosis; assay: Antimycobacterial activity against Mycobacterium tuberculosis A-3-20 after 2 weeks by broth dilution method
[15] = test system: Mycobacterium tuberculosis; assay: Antimycobacterial activity against Mycobacterium tuberculosis A-1-2 after 2 weeks by broth dilution method
[16] = test system: Mycobacterium tuberculosis; assay: Antimycobacterial activity against Mycobacterium tuberculosis A-3-17 after 2 weeks by broth dilution method
[17] = test system: Mycobacterium tuberculosis; assay: Antimycobacterial activity against Mycobacterium tuberculosis A-3-9 after 2 weeks by broth dilution method
[18] = test system: Mycobacterium tuberculosis; assay: Antimycobacterial activity against Mycobacterium tuberculosis A-3-22 after 2 weeks by broth dilution method
[19] = test system: Mycobacterium tuberculosis; assay: Antimycobacterial activity against Mycobacterium tuberculosis A-3-11 after 2 weeks by broth dilution method
[20] = test system: Mycobacterium tuberculosis; assay: Antimycobacterial activity against Mycobacterium tuberculosis A-3-19 after 2 weeks by broth dilution method
[21] = test system: Mycobacterium tuberculosis; assay: Antimycobacterial activity against Mycobacterium tuberculosis A-3-16 after 2 weeks by broth dilution method
[22] = test system: Mycobacterium tuberculosis; assay: Antimycobacterial activity against Mycobacterium tuberculosis A-3-6 after 2 weeks by broth dilution method
Mycobacterium avium = assay: Antibacterial activity against Mycobacterium avium 724S after 2 weeks by broth dilution method
[23] = test system: Mycobacterium tuberculosis; assay: Antimycobacterial activity against Mycobacterium tuberculosis A-3-5 after 2 weeks by broth dilution method
Staphylococcus aureus [24] = assay: Antibacterial activity against methicillin-resistant Staphylococcus aureus 910 after 2 weeks by broth dilution method

CCCCO[C@@H]1O[C@H](CO[C@H]2O[C@H](CO[C@H]3O[C@H](COC(C)=O)[C@H](OC(C)=O)[C@H](OC(C)=O)[C@H]3OC(C)=O)[C@H](OC(C)=O)[C@H](OC(C)=O)[C@H]2OC(C)=O)[C@@H](OC(C)=O)[C@H](OC(C)=O)[C@H]1OC(C)=O
MIC [1]: > 800 µg/mL
MIC (Staphylococcus aureus [2]): > 800 µg/mL

C/C=C/CO[C@@H]1O[C@H](CO[C@H]2O[C@H](CO[C@H]3O[C@H](COC(C)=O)[C@H](OC(C)=O)[C@H](OC(C)=O)[C@H]3OC(C)=O)[C@H](OC(C)=O)[C@H](OC(C)=O)[C@H]2OC(C)=O)[C@@H](OC(C)=O)[C@H](OC(C)=O)[C@H]1OC(C)=O
MIC [1]: > 400 µg/mL
MIC (Staphylococcus aureus [2]): > 400 µg/mL

CCCO[C@@H]1O[C@H](CO[C@H]2O[C@H](CO[C@H]3O[C@H](COC(C)=O)[C@H](OC(C)=O)[C@H](OC(C)=O)[C@H]3OC(C)=O)[C@H](OC(C)=O)[C@H](OC(C)=O)[C@H]2OC(C)=O)[C@@H](OC(C)=O)[C@H](OC(C)=O)[C@H]1OC(C)=O
MIC [1]: > 800 µg/mL
MIC (Staphylococcus aureus [2]): > 800 µg/mL

C=CCO[C@@H]1O[C@H](CO[C@H]2O[C@H](CO[C@H]3O[C@H](COC(C)=O)[C@H](OC(C)=O)[C@H](OC(C)=O)[C@H]3OC(C)=O)[C@H](OC(C)=O)[C@H](OC(C)=O)[C@H]2OC(C)=O)[C@@H](OC(C)=O)[C@H](OC(C)=O)[C@H]1OC(C)=O
MIC [3]: 6.25 µg/mL (≈ 6.48 µM)
MIC [4]: 12.5 µg/mL (≈ 13 µM)
MIC [1]: 3.13 µg/mL (≈ 3.24 µM)
MIC (Staphylococcus aureus [2]): 3.13 µg/mL (≈ 3.24 µM)
MIC (Staphylococcus aureus [5]): 3.77 µg/mL (≈ 3.91 µM)
MIC [6]: 25 µg/mL (≈ 25.9 µM)
MIC [7]: 6.25 µg/mL (≈ 6.48 µM)
MIC (Staphylococcus aureus [8]; read-out: MIC): 7.54 µg/mL (≈ 7.81 µM)
MIC [9]: 6.25 µg/mL (≈ 6.48 µM)
MIC [10]: 6.25 µg/mL (≈ 6.48 µM)
MIC [11]: 25 µg/mL (≈ 25.9 µM)
MIC (Staphylococcus aureus [12]): 15.1 µg/mL (≈ 15.6 µM)
MIC [13]: 3.13 µg/mL (≈ 3.24 µM)
MIC [14]: 6.25 µg/mL (≈ 6.48 µM)
MIC [15]: 6.25 µg/mL (≈ 6.48 µM)
MIC [16]: 3.13 µg/mL (≈ 3.24 µM)
MIC [17]: 3.13 µg/mL (≈ 3.24 µM)
MIC [18]: 3.13 µg/mL (≈ 3.24 µM)
MIC [19]: 3.13 µg/mL (≈ 3.24 µM)
MIC [20]: 3.13 µg/mL (≈ 3.24 µM)
MIC [21]: 6.25 µg/mL (≈ 6.48 µM)
MIC [22]: 6.25 µg/mL (≈ 6.48 µM)
MIC (Mycobacterium avium): 3.13 µg/mL (≈ 3.24 µM)
MIC [23]: 6.25 µg/mL (≈ 6.48 µM)
MIC (Staphylococcus aureus [24]): 15.1 µg/mL (≈ 15.6 µM)

CCO[C@@H]1O[C@H](CO[C@H]2O[C@H](CO[C@H]3O[C@H](COC(C)=O)[C@H](OC(C)=O)[C@H](OC(C)=O)[C@H]3OC(C)=O)[C@H](OC(C)=O)[C@H](OC(C)=O)[C@H]2OC(C)=O)[C@@H](OC(C)=O)[C@H](OC(C)=O)[C@H]1OC(C)=O
MIC [1]: > 800 µg/mL
MIC (Staphylococcus aureus [2]): > 800 µg/mL

CO[C@H]1/C=C/O[C@@]2(C)Oc3c(C)c(O)c4c(O)c(c(/C=N/N5CCN(C)CC5)c(O)c4c3C2=O)NC(=O)/C(C)=C\C=C\[C@H](C)[C@H](O)[C@@H](C)[C@@H](O)[C@@H](C)[C@H](OC(C)=O)[C@@H]1C [RIFAMPIN]
MIC [1]: > 0.008 µg/mL
MIC (Staphylococcus aureus [2]): 0.004 µg/mL (≈ 0.00486 µM)
MIC (Staphylococcus aureus [5]): 0.004 µg/mL (≈ 0.00486 µM)
MIC (Staphylococcus aureus [8]): 0.004 µg/mL (≈ 0.00486 µM)
MIC (Staphylococcus aureus [12]): 0.004 µg/mL (≈ 0.00486 µM)
MIC (Mycobacterium avium): 0.004 µg/mL (≈ 0.00486 µM)
MIC (Staphylococcus aureus [24]): 0.004 µg/mL (≈ 0.00486 µM)

C=CCO[C@@H]1O[C@H](CO[C@H]2O[C@H](CO[C@H]3O[C@H](CO)[C@H](O)[C@H](O)[C@H]3O)[C@H](O)[C@H](O)[C@H]2O)[C@@H](O)[C@H](O)[C@H]1O
MIC [1]: > 100 µg/mL
MIC (Staphylococcus aureus [2]): > 100 µg/mL
MIC (Staphylococcus aureus [5]): 100 µg/mL (≈ 184 µM)
MIC (Staphylococcus aureus [8]; read-out: MIC): > 100 µg/mL
MIC (Staphylococcus aureus [12]): > 100 µg/mL
MIC (Mycobacterium avium): > 100 µg/mL
MIC (Staphylococcus aureus [24]): > 100 µg/mL

CC(=O)OC[C@H](OC(C)=O)[C@@H](OC(C)=O)[C@H](OC(C)=O)[C@@H](CO[C@H]1O[C@H](CO[C@H]2O[C@H](COC(C)=O)[C@H](OC(C)=O)[C@H](OC(C)=O)[C@H]2OC(C)=O)[C@H](OC(C)=O)[C@H](OC(C)=O)[C@H]1OC(C)=O)OC(C)=O
MIC [1]: > 800 µg/mL
MIC (Staphylococcus aureus [2]): > 800 µg/mL

C=CCO [ALLYL ALCOHOL]
MIC [1]: > 400 µg/mL
MIC (Staphylococcus aureus [2]): > 400 µg/mL

NNC(=O)c1ccncc1 [ISONIAZID]
MIC [1]: 0.075 µg/mL (≈ 0.547 µM)
MIC (Staphylococcus aureus [2]): > 100 µg/mL
MIC (Staphylococcus aureus [5]): > 100 µg/mL
MIC (Staphylococcus aureus [8]; read-out: MIC): > 100 µg/mL
MIC (Mycobacterium avium): 12.5 µg/mL (≈ 91.1 µM)
MIC (Staphylococcus aureus [24]): > 100 µg/mL

CO[C@@H]1O[C@H](CO[C@H]2O[C@H](CO[C@H]3O[C@H](COC(C)=O)[C@H](OC(C)=O)[C@H](OC(C)=O)[C@H]3OC(C)=O)[C@H](OC(C)=O)[C@H](OC(C)=O)[C@H]2OC(C)=O)[C@@H](OC(C)=O)[C@H](OC(C)=O)[C@H]1OC(C)=O
MIC [1]: > 800 µg/mL
MIC (Staphylococcus aureus [2]): > 800 µg/mL

CC(=O)OC[C@H]1O[C@H](OC[C@H]2O[C@H](OC[C@H]3O[C@@H](OC(C)C)[C@H](OC(C)=O)[C@@H](OC(C)=O)[C@@H]3OC(C)=O)[C@H](OC(C)=O)[C@@H](OC(C)=O)[C@H]2OC(C)=O)[C@H](OC(C)=O)[C@@H](OC(C)=O)[C@H]1OC(C)=O
MIC [1]: > 800 µg/mL
MIC (Staphylococcus aureus [2]): > 800 µg/mL

CC[C@@H](CO)NCCN[C@@H](CC)CO [ETHAMBUTOL]
MIC [1]: 1.25 µg/mL (≈ 6.12 µM)
MIC (Staphylococcus aureus [2]): > 100 µg/mL
MIC (Staphylococcus aureus [5]): > 100 µg/mL
MIC (Staphylococcus aureus [8]; read-out: MIC): > 100 µg/mL
MIC (Staphylococcus aureus [12]): > 100 µg/mL
MIC (Mycobacterium avium): 3 µg/mL (≈ 14.7 µM)
MIC (Staphylococcus aureus [24]): > 100 µg/mL

C=CCO[C@H]1O[C@H](CO[C@H]2O[C@H](CO[C@H]3O[C@H](COC(C)=O)[C@H](OC(C)=O)[C@H](OC(C)=O)[C@H]3OC(C)=O)[C@H](OC(C)=O)[C@H](OC(C)=O)[C@H]2OC(C)=O)[C@@H](OC(C)=O)[C@H](OC(C)=O)[C@H]1OC(C)=O
MIC [1]: > 800 µg/mL
MIC (Staphylococcus aureus [2]): > 800 µg/mL

OC[C@H](O)[C@@H](O)[C@H](O)[C@H](O)CO[C@H]1O[C@H](CO[C@H]2O[C@H](CO)[C@H](O)[C@H](O)[C@H]2O)[C@H](O)[C@H](O)[C@H]1O
MIC [1]: > 800 µg/mL
MIC (Staphylococcus aureus [2]): > 800 µg/mL

C#CCO[C@@H]1O[C@H](CO[C@H]2O[C@H](CO[C@H]3O[C@H](COC(C)=O)[C@H](OC(C)=O)[C@H](OC(C)=O)[C@H]3OC(C)=O)[C@H](OC(C)=O)[C@H](OC(C)=O)[C@H]2OC(C)=O)[C@@H](OC(C)=O)[C@H](OC(C)=O)[C@H]1OC(C)=O
MIC [1]: > 800 µg/mL
MIC (Staphylococcus aureus [2]): > 800 µg/mL

C=CCN=C=S [ALLYL ISOTHIOCYANATE]
MIC [1]: > 800 µg/mL
MIC (Staphylococcus aureus [2]): > 800 µg/mL

CN[C@@H]1[C@H](O[C@H]2[C@H](O[C@H]3[C@H](O)[C@@H](O)[C@H](N=C(N)N)[C@@H](O)[C@@H]3N=C(N)N)O[C@@H](C)[C@]2(O)C=O)O[C@@H](CO)[C@H](O)[C@H]1O (stereo in doubt) [STREPTOMYCIN]
MIC [1]: 0.2 µg/mL (≈ 0.344 µM)
MIC (Staphylococcus aureus [2]): 100 µg/mL (≈ 172 µM)
MIC (Staphylococcus aureus [5]): > 100 µg/mL
MIC (Staphylococcus aureus [12]): 100 µg/mL (≈ 172 µM)
MIC (Mycobacterium avium): 0.4 µg/mL (≈ 0.688 µM)
